Data taken from patent US20060069132A1, “Azolecarboxamide herbicides” (priority 2004, published 2006).

Experiments:
[1] = test system: rice; assay: Test B pre-/postemergence herbicide test; assay type: in vivo, Oryza sativa; conditions: preemergence
Procedure, shortened: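 Seeds were planted and treated preemergence with compounds formulated in a non-phytotoxic solvent mixture containing surfactant, while plants at the 1- to 4-leaf stage (2 to 18 cm) received postemergence sprays. Flooded paddy plants were grown to the 2-leaf stage. After 13 to 15 days in a greenhouse, injury was visually rated 0–100 against untreated controls.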

[2] = test system: lambsquarters; assay: Test C pre-/postemergence herbicide test; assay type: in vivo, Chenopodium album
Procedure, shortened: (§1)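 Preemergence: seeds planted and treated with compound in non-phytotoxic solvent with surfactant; postemergence: plants at 2 to 18 cm (1- to 4-leaf stage) sprayed likewise. Kept in greenhouse 12 to 14 days, then visually rated against controls, 0 (no effect) to 100 (complete control).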

[3] = test system: rice; assay: Test C flooded paddy test; assay type: in vivo, Oryza sativa; conditions: for Plant response rating, Rice: 500 g ai/ha, visual rating after 12 to 14 days
Procedure, shortened: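 Postemergence sprays applied to plants 2 to 18 cm tall (1- to 4-leaf stage); paddy species grown to 2-leaf stage under flooding. After 12 to 14 days in greenhouse, visual rating versus untreated controls on 0–100 scale (0 no effect, 100 complete control).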

[4] = test system: large crabgrass; assay: Test C pre-/postemergence herbicide test; assay type: in vivo, Digitaria sanguinalis
Procedure, shortened: as §1

[5] = test system: smallflower umbrella sedge; assay: Test C flooded paddy test; assay type: in vivo, Cyperus difformis; conditions: for Plant response rating, Sedge, Umbrella: 500 g ai/ha, visual rating after 12 to 14 days
[6] = test system: giant foxtail; assay: Test C pre-/postemergence herbicide test; assay type: in vivo, Setaria faberi
Procedure, shortened: as §1

[7] = test system: woolly cupgrass; assay: Test C pre-/postemergence herbicide test; assay type: in vivo, Eriochloa villosa
Procedure, shortened: as §1

[8] = test system: pigweed; assay: Test C pre-/postemergence herbicide test; assay type: in vivo, Amaranthus retroflexus
Procedure, shortened: as §1

[9] = test system: velvetleaf; assay: Test A pre-/postemergence herbicide test; assay type: in vivo, Abutilon theophrasti
Procedure, shortened: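 Sandy loam soil given preemergence directed spray; plants at 2 to 10 cm, one- to two-leaf stage, sprayed to runoff postemergence, compounds in non-phytotoxic solvent with surfactant. Injury rated visually versus untreated controls after about ten greenhouse days, 0 (no effect) to 100 (complete control); dash means not tested.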

[10] = test system: common (oilseed) sunflower; assay: Test C pre-/postemergence herbicide test; assay type: in vivo, Helianthus annuus; conditions: preemergence
Excerpt: Seeds of plant species selected from bermudagrass (Cynodon dactylon (L.) Pers.), Surinam grass (Urochloa decumbens (Staph) R. D. Webster, previously named Brachiaria decumbens Stapf), cocklebur (Xanthium strumarium L.), corn (Zea mays L.), large crabgrass (Digitaria sanguinalis (L.) Scop.), woolly cupgrass (Eriochloa villosa (Thunb.) Kunth), giant foxtail (Setaria faberi Herrm.), goosegrass (Eleusine indica (L.) Gaertn.), johnsongrass (Sorghum halepense (L.) Pers.), kochia (Kochia scoparia (L.) Schrad.), lambsquarters (Chenopodium album L.), morningglory (Ipomoea coccinea L.), eastern black nightshade (Solanum ptycanthum Dunal), yellow nutsedge (Cyperus esculentus L.), pigweed (Amaranthus retroflexus L.), common ragweed (Ambrosia elatior L.), soybean (Glycine max (L.) Merr.), common (oilseed) sunflower (Helianthus annuus L.) and velvetleaf (Abutilon theophrasti Medik.) were planted and treated preemergence with test chemicals formulated in a non-phytotoxic solvent mixture which included a surfactant.
At the same time, plants selected from these crop and weed species and also winter barley (Hordeum vulgare L.), blackgrass (Alopecurus myosuroides Huds.), canarygrass (Phalaris minor Retz.), chickweed (Stellaria media (L.) Vill.), downy bromegrass (Bromus tectorum L.), green foxtail (Setaria viridis (L.) Beauv.), Italian ryegrass (Lolium multiflorum Lam.), wheat (Triticum aestivum L.), wild oat (Avenafatua L.) and windgrass (Apera spica-venti (L.) Beauv.) were treated with postemergence applications of some of the test chemicals formulated in the same manner. Plants ranged in height from 2 to 18 cm (1- to 4-leaf stage) for postemergence treatments. Plant species in the flooded paddy test consisted of rice (Oryza sativa), smallflower umbrella sedge (Cyperus difformis L.), ducksalad (Heteranthera limosa (Sw.) Willd.) and barnyardgrass (Echinochloa crus-galli (L.) Beauv.) grown to the 2-leaf stage for testing. Treated plants and controls were maintained in a greenhouse for 12 to 14 days, after which time all species were compared to controls and visually evaluated. Plant response ratings, summarized in Table C, are based on a scale of 0 to 100 where 0 is no effect and 100 is complete control. A dash (-) response means no test result.

[11] = 125 g ai/ha, 0 to 100 scale, 0 is no effect, 100 is complete control
[12] = Postemergence, 250 g ai/ha, scale 0 to 100, 0 no effect, 100 complete control
[13] = postemergence, 125 g ai/ha, scale 0 to 100
[14] = postemergence, 62 g ai/ha, scale 0 to 100
[15] = 62 g ai/ha, scale 0 to 100 (0 no effect, 100 complete control)
[16] = 125 g ai/ha, scale of 0 to 100, 0 is no effect, 100 is complete control
[17] = 250 g ai/ha, scale of 0 to 100, 0 is no effect, 100 is complete control
[18] = scale 0 to 100 (0 no effect, 100 complete control)
[19] = Postemergence, 500 g ai/ha, scale 0 to 100
[20] = Postemergence, 500 g ai/ha, 0 to 100 scale, 0 no effect, 100 complete control
[21] = Postemergence, 2000 g ai/ha, 0 to 100 scale, 0 no effect, 100 complete control
[22] = Preemergence, 500 g ai/ha, visual rating, 0 to 100 scale (0 no effect, 100 complete control)
[23] = Preemergence, 2000 g ai/ha, visual rating, 0 to 100 scale (0 no effect, 100 complete control)
[24] = 125 g ai/ha, scale 0 to 100 (0 no effect, 100 complete control)
[25] = 62 g ai/ha, preemergence, scale 0 to 100
[26] = 250 g ai/ha, scale 0-100, preemergence
[27] = 500 g ai/ha, scale 0 to 100 (0 no effect, 100 complete control), visual, 12 to 14 days, preemergence

SMILES: CCn1nc(C(C)(C)C)cc1C(=O)Nc1cccc(C(=O)OC)c1 [Compound 81]
- Plant response rating, Rice [1, 11]: 0
- Plant response rating, Lambsquarters [2, 12]: 5
- Plant response rating, Lambsquarters [2, 13]: 5
- Plant response rating, Lambsquarters [2, 14]: 5
- Rice plant response rating [3, 15]: 20
- Rice plant response rating [3, 16]: 20
- Rice plant response rating [3, 17]: 30
- Plant response rating, Rice [3, 18]: 40
- Plant response rating, Crabgrass, Large [4, 12]: 30
- Plant response rating, Crabgrass, Large [4, 13]: 10
- Plant response rating, Crabgrass, Large [4, 14]: 5
- Sedge, Umbrella plant response rating [5, 15]: 70
- Sedge, Umbrella plant response rating [5, 16]: 70
- Sedge, Umbrella plant response rating [5, 17]: 80
- Plant response rating, Sedge, Umbrella [5, 18]: 80
- Plant response rating, Foxtail, Giant [6, 12]: 20
- Plant response rating, Foxtail, Giant [6, 13]: 10
- Plant response rating, Foxtail, Giant [6, 14]: 10
- Plant response rating, Cupgrass, Woolly [7, 12]: 5
- Plant response rating, Cupgrass, Woolly [7, 13]: 5
- Plant response rating, Cupgrass, Woolly [7, 14]: 5
- Plant response rating, Pigweed [8, 12]: 40
- Plant response rating, Pigweed [8, 13]: 10
- Plant response rating, Pigweed [8, 14]: 5

SMILES: C#CCOC(=O)c1cccc(NC(=O)c2cc(C(C)(C)C)nn2CC)c1 [Compound 84]
- Plant response rating, Rice [1, 11]: 0
- Lambsquarters plant response rating [2, 19]: 50
- Plant response rating, Lambsquarters [2, 12]: 0
- Plant response rating, Lambsquarters [2, 13]: 0
- Plant response rating, Lambsquarters [2, 14]: 0
- Crabgrass, Large plant response rating [4, 19]: 50
- Plant response rating, Crabgrass, Large [4, 12]: 0
- Plant response rating, Crabgrass, Large [4, 13]: 0
- Plant response rating, Crabgrass, Large [4, 14]: 0
- Foxtail, Giant plant response rating [6, 19]: 0
- Plant response rating, Foxtail, Giant [6, 12]: 0
- Plant response rating, Foxtail, Giant [6, 13]: 0
- Plant response rating, Foxtail, Giant [6, 14]: 0
- Velvetleaf plant response rating [9, 20]: 20
- Plant response rating, Velvetleaf [9, 21]: 20
- Velvetleaf plant response rating [9, 22]: 0
- Velvetleaf plant response rating [9, 23]: 0
- Cupgrass, Woolly plant response rating [7, 19]: 0
- Plant response rating, Cupgrass, Woolly [7, 12]: 0
- Plant response rating, Cupgrass, Woolly [7, 13]: 0
- Plant response rating, Cupgrass, Woolly [7, 14]: 0
- Pigweed plant response rating [8, 19]: 100
- Plant response rating, Pigweed [8, 12]: 100
- Plant response rating, Pigweed [8, 13]: 100
- Plant response rating, Pigweed [8, 14]: 100

SMILES: C=CCOC(=O)c1cccc(NC(=O)c2cc(C(C)(C)C)nn2CC)c1 [Compound 85]
- Plant response rating, Rice [1, 11]: 0
- Lambsquarters plant response rating [2, 19]: 100
- Plant response rating, Lambsquarters [2, 12]: 50
- Plant response rating, Lambsquarters [2, 13]: 30
- Plant response rating, Lambsquarters [2, 14]: 10
- Crabgrass, Large plant response rating [4, 19]: 40
- Plant response rating, Crabgrass, Large [4, 12]: 10
- Plant response rating, Crabgrass, Large [4, 13]: 5
- Plant response rating, Crabgrass, Large [4, 14]: 0
- Foxtail, Giant plant response rating [6, 19]: 70
- Plant response rating, Foxtail, Giant [6, 12]: 50
- Plant response rating, Foxtail, Giant [6, 13]: 20
- Plant response rating, Foxtail, Giant [6, 14]: 10
- Velvetleaf plant response rating [9, 20]: 30
- Plant response rating, Velvetleaf [9, 21]: 20
- Velvetleaf plant response rating [9, 22]: 0
- Velvetleaf plant response rating [9, 23]: 0
- Cupgrass, Woolly plant response rating [7, 19]: 85
- Plant response rating, Cupgrass, Woolly [7, 12]: 80
- Plant response rating, Cupgrass, Woolly [7, 13]: 50
- Plant response rating, Cupgrass, Woolly [7, 14]: 40
- Pigweed plant response rating [8, 19]: 100
- Plant response rating, Pigweed [8, 12]: 100
- Plant response rating, Pigweed [8, 13]: 100
- Plant response rating, Pigweed [8, 14]: 100

SMILES: CCn1nc(C(C)(C)C)cc1C(=O)Nc1cccc(OC(F)(F)F)c1 [Compound 272]
- Rice plant response rating (0 to 100 scale) ([1]; 125 g ai/ha, 0 = no effect, 100 = complete control): 0
- Plant response rating, Rice ([1]; 500 g ai/ha, visual rating, 0 = no effect, 100 = complete control): 20
- Lambsquarters plant response rating [2, 19]: 100
- Plant response rating, Lambsquarters [2, 12]: 100
- Plant response rating, Lambsquarters [2, 13]: 100
- Plant response rating, Lambsquarters [2, 14]: 100
- Rice plant response rating ([3]; 62 g ai/ha, scale 0 to 100): 0
- Rice plant response rating [3, 24]: 10
- Rice plant response rating [3, 17]: 15
- Plant response rating, Rice [3, 18]: 20
- Crabgrass, Large plant response rating [4, 19]: 95
- Plant response rating, Crabgrass, Large [4, 12]: 80
- Plant response rating, Crabgrass, Large [4, 13]: 80
- Plant response rating, Crabgrass, Large [4, 14]: 40
- Sedge, Umbrella plant response rating ([5]; 62 g ai/ha, scale 0 to 100): 30
- Sedge, Umbrella plant response rating [5, 24]: 65
- Sedge, Umbrella plant response rating [5, 17]: 75
- Plant response rating, Sedge, Umbrella [5, 18]: 75
- Foxtail, Giant plant response rating [6, 19]: 75
- Plant response rating, Foxtail, Giant [6, 12]: 60
- Plant response rating, Foxtail, Giant [6, 13]: 45
- Plant response rating, Foxtail, Giant [6, 14]: 15
- Velvetleaf plant response rating [9, 20]: 100
- Plant response rating, Velvetleaf [9, 21]: 100
- Velvetleaf plant response rating [9, 23]: 60
- Velvetleaf plant response rating ([9]; preemergence, 500 g ai/ha, visual injury, 0 to 100 scale (0 no effect, 100 complete control)): 15
- Cupgrass, Woolly plant response rating [7, 19]: 65
- Plant response rating, Cupgrass, Woolly [7, 12]: 60
- Plant response rating, Cupgrass, Woolly [7, 13]: 40
- Plant response rating, Cupgrass, Woolly [7, 14]: 25
- Pigweed plant response rating [8, 19]: 100
- Plant response rating, Pigweed [8, 12]: 100
- Plant response rating, Pigweed [8, 13]: 100
- Plant response rating, Pigweed [8, 14]: 100

SMILES: CCN(CC)C(=O)c1cccc(NC(=O)c2nn(C(C)(C)C)nc2C)c1 [Compound 418]
- Plant response rating, Sunflower ([10]; 62 g ai/ha, scale 0 to 100): 0
- Plant response rating (0 = no effect, 100 = complete control), Sunflower ([10]; 125 g ai/ha): 0
- Plant response rating, Sunflower ([10]; 500 g ai/ha, scale 0 to 100 (0 no effect, 100 complete control), visual, 12 to 14 days): 0
- Plant response rating, Lambsquarters [2, 25]: 95
- Plant response rating (0 = no effect, 100 = complete control), Lambsquarters ([2]; 125 g ai/ha, preemergence): 100
- Plant response rating, Lambsquarters [2, 26]: 100
- Plant response rating, Lambsquarters [2, 27]: 100
- Plant response rating, Crabgrass, Large [4, 25]: 95
- Plant response rating (0 = no effect, 100 = complete control), Crabgrass, Large ([4]; 125 g ai/ha, preemergence): 100
- Plant response rating, Crabgrass, Large [4, 26]: 100
- Plant response rating, Crabgrass, Large [4, 27]: 100
- Plant response rating, Foxtail, Giant [6, 25]: 65
- Plant response rating (0 = no effect, 100 = complete control), Foxtail, Giant ([6]; 125 g ai/ha, preemergence): 95
- Plant response rating, Foxtail, Giant [6, 26]: 100
- Plant response rating, Foxtail, Giant [6, 27]: 100
- Plant response rating, Cupgrass, Woolly [7, 25]: 0
- Plant response rating (0 = no effect, 100 = complete control), Cupgrass, Woolly ([7]; 125 g ai/ha, preemergence): 0
- Plant response rating, Cupgrass, Woolly [7, 26]: 10
- Plant response rating, Cupgrass, Woolly [7, 27]: 95
- Plant response rating, Pigweed [8, 25]: 100
- Plant response rating (0 = no effect, 100 = complete control), Pigweed ([8]; 125 g ai/ha, preemergence): 100
- Plant response rating, Pigweed [8, 27]: 100
